Data set [1] has as its system SKI-DLCL-1 lymphoma cells. The data set is described as follows: Trypan Blue Exclusion cytotoxicity assay of single agents and combinations. It is filed as cell-based, human. The following applies: MTX 10 nM, PDX 1 nM, Ara-C 40 nM, Gem 10 nM, control = 1. From the text:
As set forth in greater detail in the examples herein, combination therapy using PDX and gemcitabine has been tested in vitro and in in vivo model systems for efficacy against lymphoma. Table 1 sets forth data obtained in a cytotoxicity assay (Example 2) using SKI-DLCL-1 lymphoma cells. SKI-DLCL-1 is a diffuse large b cell lymphoma (DLBCL) cell line that is particularly resistant to PDX.
In Table 1, the additive effect is in each case the % of control for the single agents multiplied together. The expected additive effect for PDX+Gem is better than for MTX and ara-C, because the agents are individually better. What is observed for both MTX/AraC combinations and PDX/Gem combinations is that the actual result is better than the predicted additive result. The extent of this synergism is quantified in Table 1 as (actual-additive)/additive so that the amount of reduction that occurs through the use of the combination is expressed as a percentage of the expected additive benefit.
To evaluate cytotoxicity of combination of PDX and GEM, a Trypan Blue Exclusion Assay was performed by aliquoting 5×10^5 SKI-DLBCL cells into each well of a 24 well plate with a final volume of 1 milliliter. Each drug was added in duplicate to the plate wells as follows: alone (MTX 10 nM, PDX 1 nM, Ara-C 40 nM, or Gem 10 nM), PDX+Gem or MTX+Ara-C for 48 h (hours). For the scheduled administration of drug, PDX or MTX alone were dispensed in additional duplicate wells. After 24 hours Gem and Ara-C were added to these wells, respectively, and incubated for 48 hours. At the end of incubation, 20 l of each cell culture was added to 20 l of trypan blue, after which […] was added to a hemocytometer (Hausser Scientific, Horsham, Pa.), where viable cells were counted based upon the presence (dead cells) or exclusion (live cells) of dye.

The subject of the next data set is SKI-DLCL-1 cells. The data set is described as follows: Induction of apoptosis (YO-PRO-1/propidium iodide flow cytometry). It is filed as cell-based, human. The following applies: all drugs 1 nM, total exposure 72 hours, sequential: first drug 24 hours prior to second. How it is done: Ara-C, PDX and Gem in combined and scheduled exposures. In each case, the total exposure time was 72 hours. In sequential treatments, the first drug was administered 24 hours prior to the second drug.
To assess apoptosis occurring as a result of combination therapies, apoptosis was assessed using two well standardized techniques. In the first (YO-PRO), cell membrane permeability was determined by measuring fluorescence of treated and control cells. 2×10^7 SKI-DLBCL cells were treated with either MTX, Ara-C, Gem or PDX alone or combinations of drug given together or scheduled. All drugs were assayed at equimolar concentrations (i.e. 1 nM). The incubation conditions were modeled after the in vitro cytotoxicity experiments. Single agent drugs or combinations of all drugs studied without schedule considerations were incubated for 72 hours, while drugs that were studied in some schedule were introduced in a 24+48 incubation scheme (i.e. drug B added 24 hours following drug A, then incubated for an additional 48 hours for a total incubation time of 72 hours). Cells were then collected, washed twice and re-suspended at a concentration of 1×10^6/mL in DPBS. Membrane permeability was detected via the differential cellular permeability of the fluorescent dyes YO-PRO®-1 and propidium iodide by flow cytometry, as per the manufacturer's guidelines (Vybrant apoptosis kit #4, Molecular Probes, Eugene, Oreg.). In addition to monitoring apoptosis, cell cycle kinetic analyses were also performed on all treated cells based the propidium iodide binding. Apoptotic cells were noted to be permeable to the green fluorescent dye YO-PRO®-1 (em 530, FL-1), and impermeable to the red fluorescent dye propidium iodide (em 575, FL-3). Typically, […] cells allow the entrance of both dyes, whereas living cells are impermeable to both dyes.

Data set [2] deals with subcutaneous tumors of SKI. The data set is described as follows: Preliminary combination xenograft experiment. It is filed as in vivo, irradiated NOD-SCID mice. The following applies: for tumor growth compared to the control: MTX 40 mg/kg (MTD), Ara-C 300 mg/kg (MTD) or combination at one-half the MTD, all sacrificed by week three. How it is done: Given the experience that SKI-DLCL-1 is the most PDX resistant line in the panel, it was selected for these in vivo synergy experiments. […] All animals were treated with the maximum tolerated dose (MTD) of each drug, save the combination studies.

The nature of data set [3]: Second combination xenograft experiment (FIG. 5). The following applies: SCID beige (CBSCBG-MM double), mouse, in vivo, ip. How it is done: (§1) The same type of test was repeated to assess the in vivo efficacy of using combination therapies. […] Schedule dependent treatment was also determined by pretreating animals with PDX or MTX followed 24 hours later with Gem or Ara-C, respectively. One cohort of animals was treated with Gem followed by PDX. In all cases, the control animals received intraperitoneal injections of normal saline.
(§2) Tumor bearing mice were assessed for weight loss and tumor volume at least twice weekly for the duration of the experiment. The data are expressed as the average tumor volume (mm3) per group as a function of time. Tumors were assessed by measuring the two largest perpendicular axes (l=length, w=width) with standard calipers. Tumor volume was calculated using the formula 4/3 πr^3 where r=(l+w)/4. Animals were sacrificed when one dimensional tumor diameter exceeded 2.0 cm, or after loss of more than 10% of their body weight in accordance with institutional guidelines. Animals were housed in standard shoe box cages in temperature and humidity constant rooms on a 12 hour light and dark cycle. Food and water were supplied ad libitum. Animals were maintained in core animal facilities under an institute approved animal protocol.

In data set [4] the test system is caspase 3 in SKI-DLCL-1 cells. Briefly: Caspase 3 activation (EnzChek Caspase-3 Assay Kit #2, Z-DEVD-R110 cleavage). The following applies: for Fluorescence at 485ex/527em: 1 nM, control 134.3; for Difference from control: fluorescence at 485ex/527em. It is filed as cell-based, human.
Protocol: To further evaluate the activity of PDX and Gem combinations, Caspase activity was tested by EnzChek® Caspase-3 Assay Kit #2 (Molecular Probes) based upon the fluorometric detection of caspase-dependent Z-DEVD-R110 cleavage (rhodamine 110 bis-[N-CBZ-L-aspartyl-L-glutamyl-L-valyl-L-aspartic acid amide], a non-fluorescent bisamide), which, via a two step process, first yields the monoamide product (weakly fluorescent) and then the fluorescent product R110 (rhodamine 110, strongly fluorescent). Detection was performed on a Fluoroskan Ascent FL fluorescent plate reader (Thermo Lab Systems, Helsinki, Finland) according to the manufacturer's guidelines.
The test system of another data set is SKI-DLBCL-1 xenograft. The data set is described as follows: Second combination xenograft experiment (FIG. 5). The following applies: SKI-DLBCL; PDX and Gem at one-quarter of the MTD (15 mg/kg); MTX, Ara-C alone at MTD; ip twice weekly, 4 doses. As to the method:
as §1, §2

For data set [5] the following is noted: cited from earlier work.
A further data set concerns SKI-DLBCL-1 xenografts. Briefly: TUNEL immunohistochemical staining for apoptosis in xenografts. It is filed as in vivo, mice. The following applies: day 21; four doses on days 0, 3, 7 and 10; MTX 40 mg/kg, PDX 60 mg/kg. As to the method: Immunohistochemical staining for apoptosis as measured by terminal deoxynucleotide transferase-mediated nick end-labeling (TUNEL) was performed on SKI-DLBCL-1 xenografts from mice sacrificed at day 21 following initiation of antifolate therapy. Mice received four doses of saline, MTX (40 mg/kg) or PDX (60 mg/kg) on days 0, 3, 7 and 10.

The subject of data set [6] is human HT (diffuse large B cell) non-Hodgkin's lymphoma xenografts. The data set is described as follows: Subcutaneous lymphoma xenograft treatment. It is filed as in vivo. The following applies: MTX 40 mg/kg; for Avg Tumor Diameter (mm ± SE): at the nadir of tumor regression. From the text: (§3) In order to study the effects of PDX on lymphoma growth in vivo, subcutaneous transplantation models in NOD/SCID mice were generated using three established human lymphoma cell line representative of aggressive transformed FL (RL) and de novo extranodal DLBCL (HT; SKI-DLCL-1) histologies. Six to eight week old non-obsese diabetic severe combined immunodeficient (NOD/SCID) mice (Jackson Laboratories, Bar Harbor, Me.) were sub-lethally irradiated with […] from a gamma source and inoculated with 10×10^6 lymphoma cells via a subcutaneous route. When tumor volumes approached 100 mm^3, mice were divided into three groups, averaging 3-8 mice per group. Mice were treated with normal saline or the maximum tolerated dose (MTD) of MTX (40 mg/kg) or PDX (60 mg/kg) via an intraperitoneal route twice weekly for two weeks (four total doses). […] (Sirotnak, et al., Cancer Chemother. Pharmacol. 12: 26-30 (1984); Sirotnak et al., Cancer Chemother. Pharmacol. 42: 313-318 (1998).
(§4) Engraftment rates in this experiment ranged from 80 to 90%. Palpable tumors formed under the skin approximately 7-10 days after inoculation and were readily measurable with calipers. Mice with subcutaneous lymphoma growths survived an average of 40-50 days after inoculation.

Data set [7] concerns human SKI-DLCL-1 (de novo diffuse large B cell) non-Hodgkin's lymphoma xenografts. Briefly: Subcutaneous lymphoma xenograft treatment. It is filed as in vivo. The following applies: MTX 40 mg/kg.
Text: as §3, §4

The subject of data set [8] is human RL (transformed follicular) non-Hodgkin's lymphoma xenografts. Briefly: Subcutaneous lymphoma xenograft treatment. It is filed as in vivo. The following applies: MTX 40 mg/kg.
Text: as §3, §4

[9] abbreviates: PDX 60 mg/kg ip twice weekly for two weeks.

With `Nc1ccn([C@@H]2O[C@H](CO)[C@@H](O)C2(F)F)c(=O)n1` [Gem, 1-(2′,2′-difluoro-β-D-arabinofuranosyl) cytosine], the fraction of control in [1] is on record as 0.72. Besides, the “% change in apoptosis” value in the data set on SKI-DLCL-1 cells was 33.76%. Moreover, the “tumor volume as % of initial tumor volume” value in data set [2] (60 mg/kg, regrowth by day 44 after initial response) is listed as 318%. The MTD at 2 weeks in [3] was 60 mg/kg. Further, in [4], the “Fluorescence at 485ex/527em” value amounted to 195.4 and the Difference from control is reported as 61.1.

On to `Nc1ccn([C@@H]2O[C@H](CO)[C@@H](O)[C@@H]2O)c(=O)n1` [Ara-C, cytarabine], for which, in [1], the fraction of control turned out to be 0.76. In addition, in the data set with SKI-DLCL-1 cells, the “% change in apoptosis” value was −3.08%. Also, in [2], the “tumor growth compared to the control” value is listed as “modest growth delay”. Further, the “xenograft outcome in words” value with SKI-DLBCL-1 xenograft is “sacrificed early due to excessive tumor growth”. The MTD at 2 weeks in [3] stood at 300 mg/kg. In addition, in data set [4], the “Fluorescence at 485ex/527em” value was determined as 141.1 and the Difference from control is listed as 6.8.

With `CN(Cc1cnc2nc(N)nc(N)c2n1)c1ccc(C(=O)N[C@@H](CCC(=O)O)C(=O)O)cc1` [MTX, methotrexate], the “maximum tolerated dose (MTD)” value in data set [5] (intraperitoneal, twice weekly for two weeks) was 40 mg/kg. Further, the “toxic deaths at the MTD” value in data set [5] (nude mice) is given as “no toxic deaths”. In addition, the fraction of control in data set [1] worked out at 0.92. In addition, the “% change in apoptosis” value in the data set on SKI-DLCL-1 cells is on record as −12.24%. In addition, the “tumor growth compared to the control” value in data set [2] is on record as “modest growth delay”. Further, the “apoptotic cells in tumor tissue (TUNEL)” value in the data set with SKI-DLBCL-1 xenografts was “little or no evidence of apoptotic cells”. Also, the “xenograft outcome in words” value in the data set with SKI-DLBCL-1 xenograft is given as “sacrificed early due to excessive tumor growth”. Besides, in data set [4], the “Fluorescence at 485ex/527em” value was 131 and the Difference from control is listed as −3.3. Further, in data set [6] (PDX 60 mg/kg), the “Complete Regression (no/total)” value was 0/7, the “complete tumor regression (% of mice)” value is “no tumor regression” and the “Avg Tumor Diameter (mm ± SE)” value is given as 8.7 ± 2.0 mm. Besides, the “Avg change in Tumor Volume (mm^3 ± SE)” value in [6] (setting [9]) was “+300 ± 225 mm^3”. The “Avg Tumor Diameter (mm ± SE)” value in [6] (PDX 60 mg/kg, listed as MDX) is reported as 8.7 mm. For the same molecule, in data set [7] (PDX 60 mg/kg), the “Complete Regression (no/total)” value is recorded as 0/10 and the “tumor regressions / complete remissions (% of mice)” value is “no regressions”. Further, in data set [7] (setting [9]), the “Avg Tumor Diameter (mm ± SE)” value was found to be 9.5 ± 0.4 mm and the “Avg change in Tumor Volume (mm^3 ± SE)” value was “+299 ± 58 mm^3”. In [8] (PDX 60 mg/kg), the “Complete Regression (no/total)” value was 0/12 and the “tumor regressions (% of mice)” value is given as “no regressions”. In data set [8] (setting [9]), the “Avg Tumor Diameter (mm ± SE)” value came out at 10.9 ± 0.5 mm and the “Avg change in Tumor Volume (mm^3 ± SE)” value is on record as “+619 ± 108 mm^3”.
